Here are results for 13 molecules from US10370372B2, “Fused pyrimidine compound or salt thereof” (TAIHO PHARMACEUTICAL CO., LTD., priority 2015, dated 2019).

Structures are written as SMILES. Read-outs that look alike come from different tables or passages of the source.

Holding throughout (format): cell-based
Assay [1] relates to AR positive human prostate cancer cells VCaP. Put plainly: Agonist activity for AR: cell proliferation rate of VCaP cells. As to conditions: 5-10000 nmol/L, 72 hours, relative to evaluation medium only, more than 10% = agonist activity. As for the experimental part: Then, the number of viable cells was measured (test group). As a control, the cells were cultured after being added with the evaluation medium only, and the number of viable cells was measured (control group). The number of viable cells was measured by using CellTiter-Glo™ Luminescent Cell Viability Assay (Promega). From the measured number of viable cells, cell proliferation rate with respect to the compound of Examples or the compound of Comparative Examples was calculated based on the number of viable cells measured in the case of using the evaluation medium only. Cell proliferation rate (%)=(Number of viable cells in test group−Number of viable cells in control group)/(Number of viable cells in control group)×100
By considering an error in the number of viable cells measured in the case of using the evaluation medium only, when the cell proliferation rate was more than 10% at any concentration of the 8 concentrations which had been evaluated, it was determined to have an agonist activity for AR.

A further assay deals with T1, human androgen receptor (Homo sapiens, UniProt P10275).
T1 construct: expressed in transfected cells; host or cells: COS-7 cells (ATCC)
T1 sequence (P10275 1-920): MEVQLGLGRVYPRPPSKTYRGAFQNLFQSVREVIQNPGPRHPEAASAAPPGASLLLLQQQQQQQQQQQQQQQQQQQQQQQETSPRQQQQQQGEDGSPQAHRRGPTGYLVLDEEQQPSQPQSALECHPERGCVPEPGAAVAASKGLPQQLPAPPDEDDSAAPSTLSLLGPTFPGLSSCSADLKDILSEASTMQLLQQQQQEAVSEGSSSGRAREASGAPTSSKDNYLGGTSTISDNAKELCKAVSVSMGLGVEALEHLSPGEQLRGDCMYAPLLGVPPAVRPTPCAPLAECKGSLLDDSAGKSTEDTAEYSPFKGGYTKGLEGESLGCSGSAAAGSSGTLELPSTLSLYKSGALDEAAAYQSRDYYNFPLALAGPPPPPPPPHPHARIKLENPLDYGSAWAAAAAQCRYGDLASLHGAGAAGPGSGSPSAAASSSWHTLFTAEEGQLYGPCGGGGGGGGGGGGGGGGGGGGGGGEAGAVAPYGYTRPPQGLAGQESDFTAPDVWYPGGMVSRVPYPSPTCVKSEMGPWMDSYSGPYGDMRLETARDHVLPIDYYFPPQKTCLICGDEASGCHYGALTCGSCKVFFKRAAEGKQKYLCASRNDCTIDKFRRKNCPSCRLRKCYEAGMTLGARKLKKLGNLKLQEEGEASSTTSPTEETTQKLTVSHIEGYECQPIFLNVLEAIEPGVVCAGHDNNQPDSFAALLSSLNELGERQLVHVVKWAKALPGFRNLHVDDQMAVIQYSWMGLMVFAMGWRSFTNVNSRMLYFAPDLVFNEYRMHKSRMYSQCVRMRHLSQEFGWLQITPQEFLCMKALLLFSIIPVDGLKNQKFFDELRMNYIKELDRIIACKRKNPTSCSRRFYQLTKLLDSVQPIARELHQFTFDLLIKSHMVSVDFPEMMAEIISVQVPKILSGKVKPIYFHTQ
Put plainly: Antagonist activity for AR: MMTV-luc reporter transcription in COS-7 cells transfected with human AR, stimulated with DHT. As for the experimental part: Antagonist activity for AR was evaluated according to the following method. COS-7 cells (ATCC) were transfected with pMMTV-luc vector (reporter plasmid having, as an androgen response element, […] long terminal repeat) and pEX-hAR vector (human androgen receptor expression vector: which expresses human AR gene under control of CMV promoter) by using Nucleofector (registered trademark) Kit R (Lonza) as a transfection reagent and Amaxa (Lonza). The COS-7 cells obtained after transfection were seeded in a clear bottom 96 well microplate (BD) at 1.5×10^4/well with phenol red free RPMI1640 containing 10% charcoal-treated fetal bovine serum (hereinbelow, DCC-FBS) (hereinbelow, the medium is referred to as an evaluation medium), and then cultured overnight. […] Then, the transcription activity value of the reporter plasmid was measured. The transcription activity was measured by using Bright-Glo™ Luciferase Assay System (Promega).

Assay [2] relates to Human prostate cancer cells LNCaP. Briefly: Inhibitory activity on androgen-dependent proliferation of prostate cancer cells. To be noted: 1 nmol/L DHT, 72 hours, Cell Counting Kit-8, read-out: Proliferation inhibition concentration GI50 value. As for the experimental part:
Human prostate cancer cells LNCaP (Non-Patent Literature 5) having […] androgen receptor gene were seeded in a clear bottom 96 well microplate (BD) at 4.0×10^3/well with phenol red free RPMI1640 containing 5% DCC-FBS (hereinbelow, the medium is referred to as an evaluation medium), and then cultured overnight. […] Then, the number of viable cells was measured. The number of viable cells was measured by using Cell Counting Kit-8 (DOJINDO LABORATORIES).
In general terms: Formazan colour is commonly taken as a measure of viable cells.

In a further assay the test system is AR expression in LNCaP. Put plainly: Activity of reducing expression level of androgen receptor (Western blotting in LNCaP). To be noted: Homo sapiens, read-out: AR expression reducing activity. As for the experimental part: AR positive human prostate cancer cells LNCaP were seeded in a 6 well microplate (BD) at 3.5×10^5/well with RPMI1640 containing 5% FBS (hereinbelow, the medium is referred to as an evaluation medium), and then cultured overnight. […] After culture for 48 hours, the medium was removed and the cells were washed with PBS and added with 0.1 mL of Lysis buffer (M-PER added with Protease Inhibitor Cocktail), followed by keeping at 4° C. for 20 minutes. After cell lysis, the cell solution was centrifuged to recover the supernatant as cell lysate. […] The antibody-reacting band (anti AR receptor) was quantified by LAS Imaging System (FUJIFILM) using Super Signal West Dura Substrate (Thermo Scientific) as a detection reagent.
When the AR expression reducing activity is 50% or more, it is described as “reduced”.

[3] abbreviates: COS-7 cells with pMMTV-luc and pEX-hAR, 1 nmol/L DHT, 24 hours, read-out: AR antagonist IC50.

`CC(=O)N1CCN(CCCOc2ccc(Nc3ncnc4c3CCN(c3ccc(C#N)c(Cl)c3)C4)cc2C(F)(F)F)CC1` [Example 43, 4-(4-((4-(3-(4-acetylpiperazin-1-yl)propoxy)-3-(trifluoromethyl)phenyl)amino)-5,6-dihydropyrido[3,4-d]pyrimidin-7(8H)-yl)-2-chlorobenzonitrile]: the “Cell proliferation rate (%)” value in assay [1] was determined as 8.4%. For the same molecule, at human androgen receptor, the IC50 is 0.3 µM. Also, in assay [2], the GI50 stood at 0.38 µM. The inhibition at 10 µM in the assay with AR expression in LNCaP (48 h) was over 50%.
The corresponding values for `CC(=O)N1CCN(CCCOc2ccc(Nc3ncnc4c3CCN(c3ccc(C#N)c(Cl)c3)C4)cc2Cl)CC1` [Example 42, 4-(4-((4-(3-(4-Acetylpiperazin-1-yl)propoxy)-3-chlorophenyl)amino)-5,6-dihydropyrido[3,4-d]pyrimidin-7(8H)-yl)-2-chlorobenzonitrile] are 5.1%, 0.56 µM, 1.3 µM and over 50%.
Turning to `CCNC(=O)c1ccc(Nc2ncnc3c2CCN(c2ccc(C#N)c(C(F)(F)F)c2)C3)nc1` [Example 5, 6-((7-(4-cyano-3-(trifluoromethyl)phenyl)-5,6,7,8-tetrahydropyrido[3,4-d]pyrimidin-4-yl)amino)-N-ethylnicotinamide], the “Cell proliferation rate (%)” value in assay [1] is −1.9%. This molecule also yielded an IC50 against human androgen receptor of 0.1 µM. For the same molecule, in assay [2], the GI50 was 0.12 µM. Also, the inhibition at 10 µM in the assay with AR expression in LNCaP (48 h) was over 50%.
For `N#Cc1ccc(N2CCc3c(ncnc3Nc3ccc4c(c3)CNCC4)C2)cc1Cl` [Example 37, 2-Chloro-4-(4-((1,2,3,4-tetrahydroisoquinolin-7-yl)amino)-5,6-dihydropyrido[3,4-d]pyrimidin-7(8H)-yl)benzonitrile], the “Cell proliferation rate (%)” value in assay [1] is given as 4.6%. This molecule came in with an IC50 against human androgen receptor of 0.69 µM. The GI50 in assay [2] turned out to be 0.99 µM. In addition, the inhibition at 10 µM with AR expression in LNCaP (48 h) is over 50%.
As for `CNC(=O)c1ccc(Nc2ncnc3c2CCN(c2ccc(C#N)c(C(F)(F)F)c2)C3)nc1F` [Example 3, 6-((7-(4-cyano-3-(trifluoromethyl)phenyl)-5,6,7,8-tetrahydropyrido[3,4-d]pyrimidin-4-yl)amino)-2-fluoro-N-methylnicotinamide], the “Cell proliferation rate (%)” value in assay [1] was found to be 8.9%. The IC50 against human androgen receptor was 0.031 µM. Moreover, in assay [2], the GI50 turned out to be 0.36 µM. The inhibition at 10 µM in the assay on AR expression in LNCaP (48 h) was over 50%.
The corresponding values for `CCNC(=O)c1ccc(Nc2ncnc3c2CCN(c2ccc(C#N)c(Cl)c2)C3)nc1F` [Example 1, 6-((7-(3-Chloro-4-cyanophenyl)-5,6,7,8-tetrahydropyrido[3,4-d]pyrimidin-4-yl)amino)-N-ethyl-2-fluoronicotinamide] are 9.7%, 0.0026 µM, 0.083 µM and over 50%.
For the molecule `CC(C)(C)OC(=O)N1CCc2ccc(Nc3ncnc4c3CCN(c3ccc(C#N)c(Cl)c3)C4)cc2C1` [Example 36, tert-Butyl 7-((7-(3-chloro-4-cyanophenyl)-5,6,7,8-tetrahydropyrido[3,4-d]pyrimidin-4-yl)amino)-3,4-dihydroisoquinoline-2(1H)-carboxylate], the “Cell proliferation rate (%)” value in assay [1] amounted to 4.9%. The IC50 on human androgen receptor (setting [3]) was 0.18 µM. Also, the GI50 in assay [2] was determined as 0.15 µM. In addition, the inhibition at 10 µM in the assay on AR expression in LNCaP (48 h) is over 50%.
Take `COc1ccc(Nc2ncnc3c2CCN(c2ccc(C#N)c(C(F)(F)F)c2)C3)cc1OC` [Example 26, 4-(4-((3,4-Dimethoxyphenyl)amino)-5,6-dihydropyrido[3,4-d]pyrimidin-7(8H)-yl)-2-(trifluoromethyl)benzonitrile]: the “Cell proliferation rate (%)” value in assay [1] is recorded as 4.5%. The IC50 against human androgen receptor came out at 1.1 µM. In assay [2], the GI50 was 1.2 µM. Moreover, the inhibition at 10 µM in the assay on AR expression in LNCaP (48 h) is over 50%.
Turning to `N#Cc1ccc(N2CCc3c(ncnc3Nc3ccc(C(=O)N4CCCCCC4)cn3)C2)cc1C(F)(F)F` [Example 6, 4-(4-((5-(azepane-1-carbonyl)pyridin-2-yl)amino)-5,6-dihydropyrido[3,4-d]pyrimidin-7(8H)-yl)-2-(trifluoromethyl)benzonitrile], in assay [1], the “Cell proliferation rate (%)” value is −1.0%. This molecule also registered an IC50 on human androgen receptor of 0.13 µM. For the same molecule, the GI50 in assay [2] was 0.055 µM. Also, the inhibition at 10 µM in the assay on AR expression in LNCaP (48 h) was over 50%.
With `C#CCNC(=O)c1ccc(Nc2ncnc3c2CCN(c2ccc(C#N)c(C(F)(F)F)c2)C3)nn1` [Example 11, 6-((7-(4-cyano-3-(trifluoromethyl)phenyl)-5,6,7,8-tetrahydropyrido[3,4-d]pyrimidin-4-yl)amino)-N-(prop-2-yn-1-yl)pyridazine-3-carboxamide], the “Cell proliferation rate (%)” value in assay [1] stood at 4.9%. For the same molecule, on human androgen receptor, it took 0.025 µM to reach half-maximal inhibition (IC50). The GI50 in assay [2] was 0.95 µM. In addition, in the assay on AR expression in LNCaP (48 h), the inhibition at 10 µM was over 50%.
On to `N#Cc1ccc(N2CCc3c(ncnc3Nc3ccc(N4CC5(COC5)C4)cc3)C2)cc1Cl` [Example 28, 4-(4-((4-(2-oxa-6-azaspiro[3.3]heptan-6-yl)phenyl)amino)-5,6-dihydropyrido[3,4-d]pyrimidin-7(8H)-yl)-2-chlorobenzonitrile], for which, in assay [1], the “Cell proliferation rate (%)” value is on record as 1.4%. Further, at human androgen receptor, the IC50 turned out to be 0.68 µM. Further, the GI50 in assay [2] worked out at 0.68 µM. Further, the inhibition at 10 µM in the assay with AR expression in LNCaP (48 h) is over 50%.
Take `O=C(NCC(F)(F)F)c1ccc(Nc2ncnc3c2CCN(c2ccc([N+](=O)[O-])c(C(F)(F)F)c2)C3)nn1` [Example 24, 6-((7-(4-Nitro-3-(trifluoromethyl)phenyl)-5,6,7,8-tetrahydropyrido[3,4-d]pyrimidin-4-yl)amino)-N-(2,2,2-trifluoroethyl)pyridazine-3-carboxamide]: the “Cell proliferation rate (%)” value in assay [1] was 7.8%. Also, the IC50 at human androgen receptor (setting [3]) was 0.18 µM. In addition, the GI50 in assay [2] is 0.79 µM. Besides, the inhibition at 10 µM in the assay on AR expression in LNCaP (10000 nmol/L, 48 hours, vs evaluation medium control) was over 50%.
As to `CC(C)(C)ONC(=O)c1ccc(Nc2ncnc3c2CCN(c2ccc(C#N)c(C(F)(F)F)c2)C3)nc1` [Example 7, N-(tert-butoxy)-6-((7-(4-cyano-3-(trifluoromethyl)phenyl)-5,6,7,8-tetrahydropyrido[3,4-d]pyrimidin-4-yl)amino)nicotinamide], the “Cell proliferation rate (%)” value in assay [1] turned out to be 0.90%. Also, the IC50 at human androgen receptor (setting [3]) turned out to be 0.38 µM. Besides, the GI50 in assay [2] worked out at 0.18 µM. Moreover, the inhibition at 10 µM in the assay with AR expression in LNCaP (48 h) is over 50%.

The term IC50 denotes the concentration needed to halve the response being measured.
